Test results: the Bradley open melting point set (2014)
Values joined by “and” are separate entries in the source; they are usually repeats but may differ in a detail not shown here. Identical values can stand only once. Counter-ions that a name gives are not always drawn.

Compared with `O=C(O)c1cc([N+](=O)[O-])cc([N+](=O)[O-])c1` [3,5-Dinitrobenzoic acid], `O=[N+]([O-])c1ccc(O)c([N+](=O)[O-])c1` [2,4-Dinitrophenol] is lower in melting point: 206 °C for the first, 108 °C for the second.

First: Cc1cnc(NC(=O)C2=C(O)c3ccccc3S(=O)(=O)N2C)s1 [Meloxicam]
Second: Cc1nnc2n1-c1ccc(Cl)cc1C(c1ccccc1Cl)=NC2 [triazolam]
The melting point of the first is higher: 254 °C for the first, 234 °C for the second.

Compared with `O=C1CCCC1` [cyclopentanone], `COC(=O)c1c(N)sc2c1CCCC2` is higher in melting point: -51 °C for the first, 128 °C for the second.

Compared with `COC(=O)c1ccccc1[N+](=O)[O-]` [methyl 2-nitrobenzoate], `O=[N+]([O-])c1ccccc1I` [1-iodo-2-nitrobenzene] is higher in melting point: -13 °C for the first, 51 °C for the second.

Compared with `O=[N+]([O-])c1cccc(C=NO)c1` [m-Nitrobenzaldehyde oxime], `Nc1cccc([N+](=O)[O-])c1` [m-nitroaniline] is lower in melting point: 120 °C for the first, 114 °C for the second.

First: CC(C)C [Isobutane]
Second: C[C@@H](N)C(=O)O [d-alanine]
The melting point of the first is lower: -160 °C for the first, 291 °C for the second.

First: CC(=O)Oc1cccc(C(=O)O)c1C [3-acetoxy-2-methylbenzoic acid]
Second: Nc1c(C(=O)O)cccc1C(F)(F)F [2-amino-3-(trifluoromethyl)benzoic acid]
The melting point of the first is lower: 150 °C for the first, 155 °C for the second.

Going from `N#Cc1ccc(Cl)c([N+](=O)[O-])c1` [4-chloro-3-nitrobenzonitrile] to `N#Cc1ccccc1Cl` [2-chlorobenzonitrile], the melting point falls from 100 °C to 45 °C.

Going from `O=Cc1ccc2c(c1[N+](=O)[O-])C(=O)c1c(Cl)c(Cl)c(Cl)c(Cl)c1C2=O` to `O=S(=O)(Cl)c1cccc(Cl)c1Cl` [2,3-dichlorobenzenesulfonyl chloride], the melting point falls from 267 °C to 60 °C.

Compared with `BrC(Br)C(Br)Br` [1,1,2,2-tetrabromoethane], `BrC(Br)Br` [Bromoform] is higher in melting point: 0 °C for the first, 9 °C for the second.

First: COc1cc(Cl)ccc1O [4-chloro-2-methoxyphenol]
Second: COc1ccc(B(O)O)cc1F [3-fluoro-4-methoxybenzeneboronic acid]
The melting point of the first is lower: 17 °C for the first, 238 °C for the second.

Going from `C=C(C)Br` [2-bromopropene] to `CN(C)C(=S)NN` [4,4-dimethyl-3-thiosemicarbazide], the melting point rises from -87 °C to 145 °C.

First: CCOC(=O)c1ccccc1C(=O)OCC [Diethyl phthalate]
Second: CCCCOC(=O)c1ccccc1 [N-butyl benzoate]
The melting point of the first is higher: -3 °C for the first, -22 °C for the second.

Going from `CCC(=O)OC(=O)CC` [Propanoic anhydride] to `CN(C)NC(=O)CCC(=O)O` [4-(2,2-Dimethylhydrazino)-4-oxobutanoic acid], the melting point rises from -45 °C to 154 °C.

Compared with `O=C(O)CC(CC(=O)O)C(=O)O` [tricarballylic acid], `O=C(O)CCS` [3-mercaptopropionic acid] is lower in melting point: 160 °C for the first, 18 °C for the second.

First: ClCC(CCl)(CCl)CCl [pentaerythrityl tetrachloride]
Second: CCCCCl [1-Chlorobutane]
The melting point of the first is higher: 95 °C for the first, -123 °C for the second.

Compared with `CC12CCC(=O)CC1CCC1C2CCC2(C)C1CCC2(O)CCc1ccccc1` (configuration not stated) [17-hydroxy-21-phenylpregnan-3-one], `CCC1(O)CCC2C3CCC4CC(OC(C)=O)CCC4(C)C3CCC21C` (configuration not stated) [17-hydroxypregnan-3-yl acetate] is lower in melting point: 177 °C for the first, 165 °C for the second.

Going from `Oc1c(F)ccc(F)c1F` [2,3,6-trifluorophenol] to `OB(O)c1c(F)c(F)cc(F)c1F` [2,3,5,6-tetrafluorobenzeneboronic acid], the melting point rises from 34 °C to 143 °C.

First: C=CCOc1nc(OCC=C)nc(OCC=C)n1 [2,4,6-tris(allyloxy)-1,3,5-triazine]
Second: CCNc1nc(NC(C)(C)C)nc(SC)n1 [terbutryne]
The melting point of the first is lower: 27 °C for the first, 104 °C for the second.

Going from `CC(Oc1cccc(Cl)c1)C(=O)O` (configuration not stated) [2-(3-chlorophenoxy)propionic acid] to `CC(Oc1cc(Cl)c(Cl)cc1Cl)C(=O)O` (configuration not stated) [2-(2,4,5-Trichlorophenoxy)propanoic acid], the melting point rises from 115 °C to 176 °C.

First: N#CCC(=O)N1CCCC1 [1-(cyanoacetyl)pyrrolidine]
Second: N#CCC(=O)c1ccccc1 [Cyanoacetophenone]
The melting point of the first is lower: 73 °C for the first, 83 °C for the second.

First: C(#Cc1ccccc1)c1ccccc1 [diphenylacetylene]
Second: C(=C\c1ccccc1)/c1ccccc1 [trans-stilbene]
The melting point of the first is lower: 60 °C for the first, 124 °C for the second.

Compared with `O=C1CCc2ccc(F)cc21` [6-fluoro-1-indanone], `COc1cc2c(c(OC)c1OC)-c1ccc(OC)c(=O)cc1[C@@H](NC(C)=O)CC2` is higher in melting point: 58 °C for the first, 142 °C for the second.

Compared with `CCOC(=O)c1ccc(-n2c(C)ccc2C)cc1` [OSM-S-40], `CC(=O)c1ccc(Oc2ccccc2)cc1` [4'-phenoxyacetophenone] is lower in melting point: 60.5 °C for the first, 50 °C for the second.

First: N#CCOc1ccc(Cl)cc1Cl [2,4-dichlorophenoxyacetonitrile]
Second: Oc1c(Cl)cccc1Cl [2,6-dichlorophenol]
The melting point of the first is lower: 47 °C for the first, 67 °C for the second.

First: O=C(Cl)c1cccc(C(=O)Cl)c1 [isophthaloyl dichloride]
Second: C=Cc1cccc(C(=O)O)c1 [m-vinylbenzoic_acid]
The melting point of the first is lower: 44 °C for the first, 96 °C for the second.

First: COc1cccc(B(O)O)c1OC [2,3-dimethoxybenzeneboronic acid]
Second: COc1ccc(B(O)O)cc1OC [3,4-dimethoxybenzeneboronic acid]
The melting point of the first is lower: 69 °C for the first, 240 °C for the second.

Compared with `O=[N+]([O-])c1cc[n+]([O-])c(Br)c1` [2-bromo-4-nitropyridine n-oxide], `O=C(O)c1cc(O)ccc1[N+](=O)[O-]` [5-hydroxy-2-nitrobenzoic acid] is higher in melting point: 145 °C for the first, 170 °C for the second.

First: C[C@]12CC[C@@H]3c4ccc(O)cc4CC[C@H]3[C@@H]1CC[C@@H]2O [Estradiol]
Second: OB(O)c1ccc(Cl)cc1C(F)(F)F [4-chloro-2-(trifluoromethyl)benzeneboronic acid]
The melting point of the first is lower: 176 °C for the first, 181 °C for the second.

First: CCC(C)c1ccccc1O (configuration not stated) [2-sec-butylphenol]
Second: CCc1cccc(C)c1 [3-ethyltoluene]
The melting point of the first is higher: 10 °C for the first, -96 °C for the second.

First: COP(=S)(OC)Oc1cc(Cl)c(Cl)cc1Cl [fenchlorphos]
Second: OB(O)c1cc(Cl)cnc1Cl [2,5-dichloropyridine-3-boronic acid]
The melting point of the first is lower: 35 °C for the first, 154 °C for the second.

First: C=CCCCCCCCCCC [1-dodecene]
Second: CCCCCCC=O [heptanal]
The melting point of the first is higher: -35 °C for the first, -43 °C for the second.

First: Cc1cc(Br)ccc1Br [2,5-dibromotoluene]
Second: Brc1ccc2ncsc2c1 [6-bromobenzothiazole]
The melting point of the first is lower: 6 °C for the first, 53 °C for the second.

First: NS(=O)(=O)c1cc2c(cc1Cl)NCNS2(=O)=O [hydrochlorothiazide]
Second: O=S(=O)(Cl)c1cccs1 [thiophene-2-sulfonyl chloride]
The melting point of the first is higher: 269 °C for the first, 30 °C for the second.

Compared with `CN(C)C(=O)Nc1ccc(Cl)cc1` [Monuron], `CCc1ccc(C)cc1` [1-methyl-4-ethylbenzene] is lower in melting point: 174 °C for the first, -62 °C for the second.

First: Oc1c(F)c(F)c(F)c(F)c1F [Pentafluorophenol]
Second: Fc1cccc(P(c2cccc(F)c2)c2cccc(F)c2)c1 [tris(3-fluorophenyl)phosphine]
The melting point of the first is lower: 35 °C for the first, 62 °C for the second.

First: Cc1nnc2n1-c1ccc(Cl)cc1C(c1ccccc1Cl)=NC2 [Triazolam]
Second: CCCCC1=NC2(CCCC2)C(=O)N1Cc1ccc(-c2ccccc2-c2nnn[nH]2)cc1 [Irbesartan]
The melting point of the first is higher: 234 °C for the first, 180 °C for the second.

First: OC1CCCCC1 [cyclohexanol]
Second: O=c1nc[nH]c2c1ncn2[C@H]1CC[C@@H](CO)O1 [Didanosine]
The melting point of the first is lower: 21 °C for the first, 162 °C for the second.

Going from `N#CCc1cccc(Br)c1` [3-bromophenylacetonitrile] to `Cc1cccc(N)c1` [m-toluidine], the melting point falls from 27 °C to -30 °C.

Compared with `N#Cc1ccc(C#N)cc1` [1,4-dicyanobenzene], `N#Cc1ccc(N)cc1` [4-aminobenzonitrile] is lower in melting point: 226 °C for the first, 85 °C for the second.

Compared with `c1ccc2scnc2c1` [benzothiazole], `ON=C(c1ccccc1)c1ccccn1` [phenyl 2-pyridyl ketoxime] is higher in melting point: 2 °C for the first, 155 °C for the second.

Compared with `CCOC=O` [ethyl formate], `CCc1ccc(OCC(=O)O)cc1` [4-ethylphenoxyacetic acid] is higher in melting point: -81 °C for the first, 93 °C for the second.

First: Cc1c[nH]c(=O)[nH]c1=O [thymine]
Second: Cc1cc(=O)cc(C)o1 [2,6-dimethyl-4-pyrone]
The melting point of the first is higher: 316 °C for the first, 134 °C for the second.

Going from `O=C(O)/C=C/c1ccc(C(F)(F)F)cc1` [trans-4-(trifluoromethyl)cinnamic acid] to `O=Cc1ccc(O)c(O)c1O` [2,3,4-trihydroxybenzaldehyde], the melting point falls from 232 °C to 167 °C.

First: OB(O)c1cccnc1F [2-fluoropyridine-3-boronic acid]
Second: Nc1ncc(Br)cc1Br [2-amino-3,5-dibromopyridine]
The melting point of the first is higher: 172 °C for the first, 104 °C for the second.

Going from `CCCCCCCC(C)CC` (configuration not stated) [3-methyldecane] to `CC(C)(C)NC(=O)C(c1ccccc1)N(Cc1ccco1)C(=O)CNC(=O)OC(C)(C)C` (configuration not stated) [Ugi product 206B(UC)], the melting point rises from -76 °C to 203 °C.

Compared with `c1ccc(P(CP(c2ccccc2)c2ccccc2)c2ccccc2)cc1` [Methylenebis(diphenylphosphine)], `c1ccc(C2=C(c3ccccc3)C(c3ccccc3)C(c3ccccc3)=C2c2ccccc2)cc1` [pentaphenylcyclopentadiene] is higher in melting point: 121 °C for the first, 256 °C for the second.

First: CC(=O)C=C(C)[O][Co]([O]C(C)=CC(C)=O)[O]/C(C)=C\C(C)=O [Cobalt(3+) tris[(2Z)-4-oxopent-2-en-2-olate]]
Second: COc1ccc2c(c1)c(CC(=O)OCC(=O)O)c(C)n2C(=O)c1ccc(Cl)cc1 [acemetacin]
The melting point of the first is higher: 212 °C for the first, 150 °C for the second.

Compared with `CN(C)c1ccc([N+]([O-])=CC(=O)c2ccc(C(=O)C=[N+]([O-])c3ccc(N(C)C)cc3)cc2)cc1`, `C/C=C/C=C/CO` [trans,trans-2,4-hexadien-1-ol] is lower in melting point: 133 °C for the first, 31 °C for the second.

For `c1ccc(Nc2ccccc2)cc1` [diphenylamine], the melting point was 52 °C and 53.5 °C and 54 °C.
For `O=Cc1ccc(Cl)cc1` [4-chlorobenzaldehyde], the melting point was 46 °C and 48.5 °C and 47 °C.
For `Clc1cc(Cl)c(Cl)cc1Cl` [1,2,4,5-tetrachlorobenzene], the melting point was 139 °C (2×) and 140 °C.
With `c1ccc2ccccc2c1` [naphthalene] the melting point was 83 °C and 80.2 °C.
